Data published in paper PMC13198932, “Pyrazolone-based ERO1 inhibitors in ERO1-driven triple-negative breast cancer and SEPN1-related myopathy: Structure–activity relationship and therapeutic potential” (Pharmacological research, 2025).
“And” between values parts separate entries of the source, which are not always exact repeats. Identical values can stand only once. “Also recorded” adds a separate entry of the source. Like-named read-outs stand apart in the source and are kept apart here.

How the values were obtained:
[1] = molecular target: T1, recombinant ERO1A (Mus musculus, UniProt Q8R180); assay: AUR-based kinetic assay of ERO1A activity (recombinant ERO1A and PDIA1, HRP, Amplex Ultra Red); format: biochemical; conditions: for IC50: Table 1 in Fig. 3
T1 construct: GST-SMT3-mouse ERO1A (residues 43–464); GST-SMT3 (GST-SUMO) (N, cleaved yes); made in house; host or cells: E. coli Rosetta DE3 (Novagen)
T1 sequence (Q8R180 43-464): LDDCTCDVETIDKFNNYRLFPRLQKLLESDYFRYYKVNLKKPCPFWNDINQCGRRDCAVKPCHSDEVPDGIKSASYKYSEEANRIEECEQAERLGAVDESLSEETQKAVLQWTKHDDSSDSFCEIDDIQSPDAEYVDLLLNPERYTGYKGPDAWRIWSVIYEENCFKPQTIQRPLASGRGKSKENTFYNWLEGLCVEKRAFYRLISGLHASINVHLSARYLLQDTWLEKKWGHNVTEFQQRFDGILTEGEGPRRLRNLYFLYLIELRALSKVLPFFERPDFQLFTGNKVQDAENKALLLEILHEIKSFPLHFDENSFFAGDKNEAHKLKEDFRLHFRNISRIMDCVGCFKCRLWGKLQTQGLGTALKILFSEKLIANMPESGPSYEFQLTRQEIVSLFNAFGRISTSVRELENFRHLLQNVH
Excerpt: A GST-SMT3-mouse ERO1A (residues 43–464) and His-tagged PDIA1 [30] were expressed in the Rosetta DE3 bacteria (Novagen) and purified as described in [29, 31]. The GST-SMT3 and His tags were cleaved using Ulp protease (Z03691, GenScript) and thrombin protease (T6884, Merck), respectively. Successful tag removal was confirmed by a shift to a lower molecular weight for ERO1A on SDS-PAGE and by the absence of signal in anti-His immunoblotting for PDIA1.
The kinetic assay of ERO1A activity is based on a reaction involving recombinant ERO1A and PDIA1 proteins, horseradish peroxidase (Worthington), and 5 μM Amplex Ultra Red, as detailed in [29]. The effect of ERO1A inhibitors was evaluated by preincubating the compounds with ERO1A and measuring the inhibition of the linear reaction rate, and the corresponding IC50 values were determined using Prism 10 (GraphPad).
EN460 and 16 newly synthesized derivatives (I24–I40) (except for I31, which was not evaluated due to potential toxicity associated with its CN group) were evaluated for their ability to inhibit ERO1-dependent AUR fluorescence using a kinetic assay with recombinant ERO1 and PDIA1, as previously described (Figs. 3A and 3B). Raw kinetic data showing AUR fluorescence over time in reactions containing reduced ERO1, PDIA1 and EN460-derivatives are presented in Fig. Sup.1 A and Sup. 1B. Reaction rates, measured in presence or absence of varying concentrations of each compound, were used to calculate IC50 values, defined as the concentration required to inhibit 50 % of ERO1 enzymatic activity (Figs. 3C, 3D and Fig. Sup1C).

[2] = molecular target: T2, Human monoamine oxidase A (Mao-A) (Homo sapiens, UniProt P21397); assay: Mao-A activity assay (commercial kit, p-tyramine, H2O2 fluorimetry); format: biochemical; conditions: 25 μM, 10 min incubation
T2 construct: purchased Sigma-Aldrich
T2 sequence (P21397 1-527): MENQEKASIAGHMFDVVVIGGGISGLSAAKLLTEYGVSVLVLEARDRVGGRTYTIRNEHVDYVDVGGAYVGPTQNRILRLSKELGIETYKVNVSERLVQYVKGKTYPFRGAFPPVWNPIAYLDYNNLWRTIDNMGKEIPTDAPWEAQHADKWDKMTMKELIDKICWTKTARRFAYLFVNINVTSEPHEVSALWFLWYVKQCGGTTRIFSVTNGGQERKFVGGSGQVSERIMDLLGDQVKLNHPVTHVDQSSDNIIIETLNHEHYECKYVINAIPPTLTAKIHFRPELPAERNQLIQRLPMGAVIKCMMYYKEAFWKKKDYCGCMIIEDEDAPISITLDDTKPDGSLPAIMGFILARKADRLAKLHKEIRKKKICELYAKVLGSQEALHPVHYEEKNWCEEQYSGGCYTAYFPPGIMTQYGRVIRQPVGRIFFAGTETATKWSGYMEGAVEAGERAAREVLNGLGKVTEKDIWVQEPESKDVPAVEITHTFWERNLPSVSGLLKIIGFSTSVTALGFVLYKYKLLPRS
Experimental: Mao-A activity was measured using a commercial assay kit according to the manufacturer’s instructions. Mao-A (0.837 μM) was incubated with vehicle (1 % DMSO), Clorgyline (50 μM), or various concentrations (1, 5, or 25 μM) of EN460, I2, I26, or I29 for 10 min. Mao-A catalyzes the oxidative deamination of p-tyramine, generating H2O2, which was quantified fluorimetrically (λex= 530; λem= 585 nm). Mao-A activity is presented as a percentage of the vehicle control.

[3] = tested on: WT and SEPN1 KO mice; assay: Whole-body plethysmography in WT and SEPN1 KO mice; format: in vivo; conditions: 10 mg/kg i.p. once daily for five days
Experimental: Wild-type (WT) and SEPN1 knockout (KO) C57BL/6 male mice, aged 4 months, were fed either a selenium-deficient diet or a diet containing 0,4 ppm selenium for four months (cod. 10105101, Charles River). Experimental protocols followed D.lgs. 26/2014 (authorization 19/2008-A; authorization 465/2023-PR to E. Zito). All animal experiments were performed in accordance with the ARRIVE guidelines and complied with relevant national and international laws, regulations, and policies governing the care and use of laboratory animals, including Italian law.
Wild-type (WT) and SEPN1 knockout (KO) male mice, previously fed a selenium-deficient diet or a diet containing 0.4 ppm selenium, were randomized to receive intraperitoneal (i.p.) injections of I29 or vehicle alone. Treatments were administered once daily for five consecutive days at a dose of 10 mg/kg. Twenty-four hours after the final injection, mice underwent whole-body plethysmography (Whole Body Plethysmography by emkaTechnologies) under baseline conditions in ambient air to assess several respiratory parameters reflecting ventilatory efficiency. In particular, tidal volume (TV), breathing frequency (f), peak inspiratory flow (PIF), and mean inspiratory flow (TV/inspiratory time [TI]) were measured. Both intra- and inter-subject coefficients of variation (CV) for TV and f were also computed.

[4] = compounds dissolved in DMSO, preincubated with ERO1A, NA stands for not active, read-out: IC50
[5] = logarithm of IC50 in μM, compounds dissolved in DMSO, read-out: Log IC50 (confidence intervals) (converted)
[6] = selenium-supplemented (0.4 ppm) SEPN1 KO mice

| Compound | IC50 [1, 4] | IC50 [1, 5] | Mao-A activity (percentage of the vehicle control) [2] | IC50 / potency relative to EN460 ([1]; compared with EN460) | ERO1 inhibitory activity (in words) ([1]; compounds dissolved in DMSO) | respiratory function ([3]; SEPN1 KO mice) | respiratory parameters ([3]; WT mice, independent of selenium content in the diet) | variability in tidal volume (CV TV) ([3]; selenium-deficient SEPN1 KO mice) | variability in respiratory frequency (CV f) [3, 6] | variability in tidal volume (CV TV) [3, 6] |
| --- | --- | --- | --- | --- | --- | --- | --- | --- | --- | --- |
| O=C(O)c1cc(N2N=C(C(F)(F)F)/C(=C\c3ccc(-c4ccccc4)o3)C2=O)ccc1Cl [EN460, reference compound] | 6 µM | 5.89 µM | inhibited Mao-A activity |  |  |  |  |  |  |  |
| O=C1/C(=C/c2ccc(-c3ccccc3)o2)C(C(F)(F)F)=NN1c1ccccc1F [I29] | 2.6 µM and ~2.6 µM | 2.63 µM | inhibited Mao-A activity | more than two times lower; also recorded: twofold lower; also recorded: approximately twofold higher activity; also recorded: twofold increase in potency | highest potency | failed to improve respiratory function | mild improvement in respiratory parameters | increased CV TV | concomitant reduction in CV f | consistently reduced CV TV |
